From WO2016087994A1, “Btk inhibitors to treat solid tumors through modulation of the tumor microenvironment” (dated 2016)
Entries after “also recorded” stand apart in the source; their conditions may differ.

Tests used:
CLL = details: cited from earlier work
[1] = system: human platelet-mediated thrombosis; assay: In vivo human platelet thrombus formation after laser injury in VWF HA1 mice; set-up: species or system human platelets in VWF HA1 mice
[2] = system: B cell receptor (CD69 on CD19+ B cells); assay: Inhibition of BCR signaling (CD69) on B cells in whole blood; type: cell-based; details: Homo sapiens, 18 h
[3] = system: rituximab-coated Raji cells; assay: Rituximab ADCC, chromium release, Raji targets; type: cell-based, human; details: 1 μM; healthy donor NK cells / Raji; listed as ibrutinib
[4] = system: GPVI platelet aggregation; assay: GPVI (convulxin-induced) human platelet aggregation; type: cell-based
[5] = system: CLL/lymphoid malignancies; details: human, in vivo; cited from earlier work
CD8 + T cells [6] = assay: CD8+ T cell viability; type: cell-based; details: higher concentrations of ibrutinib; any concentration of Formula (II)
CD8 + T cells [7] = assay: CD8+ T cell IFN-γ levels; type: cell-based; details: relative to vehicle
[8] = target: epidermal growth factor receptor (EGFR) (Homo sapiens, UniProt P00533); details: cited from earlier work
[9] = 420 mg QD; cited from earlier work
CD4 + T cells = assay: Th17 and Treg development of CD4+ T cells; type: cell-based
[10] = system: CD8 + T cells with B lymphoblast targets; assay: Cytotoxic T cell (CTL) assay; type: cell-based; details: 500 nM, relative to vehicle
[11] = system: metastatic pancreatic cancer; details: Phase 3; P < 0.001; cited from earlier work
[12] = Phase 1, previously treated CLL, monotherapy

Chain of epidermal growth factor receptor (EGFR) (P00533 25-1210): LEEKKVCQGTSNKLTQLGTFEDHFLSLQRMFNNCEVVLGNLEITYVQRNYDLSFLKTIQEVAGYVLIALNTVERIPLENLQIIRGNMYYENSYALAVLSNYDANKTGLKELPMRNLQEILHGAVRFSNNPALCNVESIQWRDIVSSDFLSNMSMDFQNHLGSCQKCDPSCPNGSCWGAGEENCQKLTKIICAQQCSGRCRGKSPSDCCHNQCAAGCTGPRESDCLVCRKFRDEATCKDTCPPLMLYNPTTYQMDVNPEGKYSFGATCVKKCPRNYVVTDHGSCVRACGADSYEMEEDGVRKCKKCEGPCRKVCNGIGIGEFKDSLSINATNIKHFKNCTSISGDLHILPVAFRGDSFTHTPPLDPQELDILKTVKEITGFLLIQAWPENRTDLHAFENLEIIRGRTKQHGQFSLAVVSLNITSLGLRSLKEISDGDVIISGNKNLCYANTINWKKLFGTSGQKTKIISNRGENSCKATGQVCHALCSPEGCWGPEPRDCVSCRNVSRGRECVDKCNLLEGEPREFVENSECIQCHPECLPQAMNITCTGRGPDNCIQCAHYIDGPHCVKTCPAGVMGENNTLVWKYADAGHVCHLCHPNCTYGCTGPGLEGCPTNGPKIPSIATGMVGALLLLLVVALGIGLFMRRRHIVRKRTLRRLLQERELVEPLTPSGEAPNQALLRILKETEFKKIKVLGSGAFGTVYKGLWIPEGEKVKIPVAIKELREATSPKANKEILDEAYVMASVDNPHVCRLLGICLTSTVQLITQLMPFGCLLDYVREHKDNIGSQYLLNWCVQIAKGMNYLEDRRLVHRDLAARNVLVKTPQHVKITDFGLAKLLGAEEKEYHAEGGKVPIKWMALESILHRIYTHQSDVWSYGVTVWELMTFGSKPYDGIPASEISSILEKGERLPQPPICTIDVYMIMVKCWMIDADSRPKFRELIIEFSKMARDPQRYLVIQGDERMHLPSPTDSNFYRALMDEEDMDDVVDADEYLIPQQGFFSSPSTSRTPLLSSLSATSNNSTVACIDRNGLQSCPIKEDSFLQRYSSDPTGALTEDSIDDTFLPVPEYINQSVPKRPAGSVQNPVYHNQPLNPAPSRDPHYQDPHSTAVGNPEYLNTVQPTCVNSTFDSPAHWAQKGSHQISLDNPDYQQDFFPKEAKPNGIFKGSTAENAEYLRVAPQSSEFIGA

In the case of “obinutuzumab: humanized monoclonal antibody directed against CD20”, the MRD-negative complete responses (CLL; [12]) is given as 1, the response rate (CLL; [12]) is given as 62% and the “infusion related reactions (IRR), Grade 3” value (CLL; R/R CLL, Phase 1 portion, n=13) is given as 15%. The “infusion related reactions (IRR), Grade 4 (in words)” value (CLL; R/R CLL, Phase 1 portion, n=13) was “no Grade 4”, the “infusion related reactions (IRR), all grade” value (CLL; R/R CLL, Phase 1 portion, n=13) was 100 % of patients and the “Grade 3 reactions among those with hypotension” value (CLL; R/R CLL, Phase 2 portion) was 25%. For the same molecule, the “IRR cases developing symptoms of hypotension” value (CLL; R/R CLL, Phase 2 portion) was 60 % of cases and the “patients with IRR” value (CLL; R/R CLL, Phase 2 portion) was 95 % of patients.

For C=CC(=O)Nc1cccc(Nc2nc(Nc3ccc(OCCOC)cc3)ncc2F)c1 [Formula (XVII), N-(3-((5-fluoro-2-((4-(2-methoxyethoxy)phenyl)amino)pyrimidin-4-yl)amino)phenyl)acrylamide, reference compound], the “effect on thrombus formation (in words)” value [1] was “interfere with thrombus formation; also recorded: an effect similar to Formula (X) (ibrutinib)”.

In the case of C=CC(=O)N1CCC[C@@H](n2nc(-c3ccc(Oc4ccccc4)cc3)c3c(N)ncnc32)C1 [Formula (X), l-[(3i?)-3-[4-amino-3-(4-phenoxyphenyl)-lH-pyrazolo[3,4-i]pyrimidin-l-yl]piperidin-l-yl]prop-2-en-l-one], the EC50 [2] is reported as 6.1 nM, the “inhibition of rituximab ADCC (in words)” value [3] is reported as “completely inhibited ADCC; also recorded: strongly inhibited the antibody-dependent lysis of target cells” and the “inhibition of GPVI platelet aggregation (in words)” value [4] is reported as “significantly inhibits GPVI platelet aggregation”. The IC50 ([4]; Homo sapiens, Platelet, read-out: IC50, GPVI platelet aggregation) was 130 nM, the “onset of lymphocytosis after start of therapy” value [5] was 1-2 weeks and the “time to plateau of lymphocytosis” value [5] was 2-3 cycles. For the same molecule, the “CD8+ T cell viability (in words)” value (CD8 + T cells [6]) was “strong, negative effect on CD8 + T cell viability”, the “CD8+ T cell function as IFN-γ level (in words)” value (CD8 + T cells [7]) was “affects CD8 + T cell function; also recorded: significant loss of function” and the “inhibition of EGFR (in words)” value [8] was “inhibits epidermal growth factor receptor (EGFR)”. For the same molecule, the “bleeding events in CLL” value [9] was 63%, the “Th17 development (in words)” value (CD4 + T cells) was “profound inhibition of Thl7 cells” and the “Treg development (in words)” value (CD4 + T cells) was “increase in Treg development”. For the same molecule, the “CD8+ T cell function as % cytotoxicity (in words)” value [10] was “affects CD8 + T cell function”.

In the case of Nc1ccn([C@@H]2O[C@H](CO)[C@@H](O)C2(F)F)c(=O)n1 [gemcitabine, 4-amino-l-((2i?,4i?,5i?)-3,3-difluoro-4-hydroxy-5-(hydroxymethyl)tetrahydrofuran-2-yl)pyrimidin-2(lH)-one], the ORR [11] is given as 7%, the “median OS” value [11] is given as 6.7 months and the “median PFS” value [11] is given as 3.7 months.
